Measured values from the C3SDB collision cross section collection.
Values belong to the compound of their own block, whether it stands above or below them.

How the values were obtained:
[1] = instrument: DT, single field, calibrated with Agilent tune mix (Agilent)
[2] = instrument: DT, stepped-field
[3] = instrument: DT, stepped-field; remark: listed apart in the source

SMILES: Cn1c(=O)c2c(ncn2C)n(C)c1=O [Caffeine]
- collision cross section (N2) ([1]; [M+H]+): 140.9 Å²
- collision cross section (N2) ([2]; [M+H]+): 145.4 Å²
- collision cross section (N2) ([2]; [M+Na]+): 142.93 Å²

SMILES: OC[C@H]1O[C@@H](O[C@H]2[C@H](O)[C@@H](O)[C@H](O)O[C@@H]2CO)[C@H](O)[C@@H](O)[C@@H]1O [Cellobiose]
- collision cross section (N2) ([1]; [M+Na]+): 178.1 Å²
- collision cross section (N2) ([2]; [M+Na]+): 178.66 Å²

SMILES: CCCCCCCCCCCCCCCCCC(=O)N[C@@H](CO)[C@H](O)CCCCCCCCCCCCCCC [Cer(36:00)]
- collision cross section (N2) ([3]; [M+H]+): 261.92 Å²

SMILES: CCCCCCCCCCCCCCCCCCCC(=O)N[C@@H](CO)[C@H](O)CCCCCCCCCCCCCCC [Cer(38:00)]
- collision cross section (N2) ([3]; [M+H]+): 267.37 Å²

SMILES: CCCCCCCCCCCCC=CC[C@@H](O)[C@H](CO)NC(=O)CC=CCCCCCCCCCCCCCCCCCC [Cer(40:02)]
- collision cross section (N2) ([3]; [M+H-H2O]+): 267.47 Å²
- collision cross section (N2) ([3]; [M+H]+): 272.27 Å²

SMILES: CCCCCCCCCCCCC=CC[C@@H](O)[C@H](CO)NC(=O)CC=CCCCCCCCCCCCCCCCCCCCCCC [Cer(44:02)]
- collision cross section (N2) ([3]; [M+H-H2O]+): 279.7 Å²

SMILES: OCC1(O)OC[C@@H](O)[C@@H](O)[C@@H]1O (stereo partly drawn) [D-Fructose]
- collision cross section (N2) ([1]; [M+Na]+): 141.4 Å²
- collision cross section (N2) ([2]; [M+Na]+): 141.93 Å²

SMILES: Nc1ccn([C@H]2C[C@H](O)[C@@H](CO)O2)c(=O)n1 [Deoxycytidine]
- collision cross section (N2) ([1]; [M+Na]+): 154.5 Å²
- collision cross section (N2) ([1]; [M-H]-): 146.84 Å²
- collision cross section (N2) ([2]; [M+Na]+): 158.41 Å²

SMILES: O=C(COP(=O)(O)O)[C@@H](O)[C@H](O)[C@H](O)CO [Fructose-1-phosphate]
- collision cross section (N2) ([1]; [M+Na]+): 155.4 Å²
- collision cross section (N2) ([1]; [M-H]-): 141.86 Å²
- collision cross section (N2) ([2]; [M+Na]+): 159.68 Å²

SMILES: CCCCCCCCCCCCCCCCCC(=O)N[C@@H](CO[C@@H]1O[C@H](CO)[C@@H](O)C(O)C1O)[C@H](O)CCCCCCCCCCCCCCC (stereo partly specified) [GlcCer(36:00)]
- collision cross section (N2) ([3]; [M+H]+): 284.59 Å²

SMILES: CCCCCCCCCCCCC=CC[C@@H](O)[C@H](CO[C@@H]1O[C@H](CO)[C@@H](O)C(O)C1O)NC(=O)CC=CCCCCCCCCCCCCCC (stereo partly specified) [GlcCer(36:02)]
- collision cross section (N2) ([3]; [M+H]+): 281.37 Å²
- collision cross section (N2) ([3]; [M+Na]+): 281.52 Å²

SMILES: CCCCCCCCCCCCC=CC[C@@H](O)[C@H](CO[C@@H]1O[C@H](CO)[C@@H](O)C(O)C1O)NC(=O)CCCCCCCCCCCCCCCCCCCC (stereo partly specified) [GlcCer(39:01)]
- collision cross section (N2) ([3]; [M+Na]+): 291.95 Å²

SMILES: CCCCCCCCCCCCC=CC[C@@H](O)[C@H](CO[C@@H]1O[C@H](CO)[C@@H](O)C(O)C1O)NC(=O)CC=CCC=CCCCCCCCCCCCCCCC (stereo partly specified) [GlcCer(40:03)]
- collision cross section (N2) ([3]; [M+Na]+): 290.28 Å²

SMILES: CCCCCCCCCCCCCCCCCCCCCCCC(=O)N[C@@H](CO[C@@H]1O[C@H](CO)[C@@H](O)C(O)C1O)[C@H](O)CCCCCCCCCCCCCCC (stereo partly specified) [GlcCer(42:00)]
- collision cross section (N2) ([3]; [M+H]+): 302.3 Å²
- collision cross section (N2) ([3]; [M+Na]+): 303.14 Å²

SMILES: CCCCCCCCCCCCC=CC[C@@H](O)[C@H](CO[C@@H]1O[C@H](CO)[C@@H](O)C(O)C1O)NC(=O)CC=CCCCCCCCCCCCCCCCCCCCC (stereo partly specified) [GlcCer(42:02)]
- collision cross section (N2) ([3]; [M+Cl]-): 298.77 Å²
- collision cross section (N2) ([3]; [M+H-H2O]+): 296.4 Å²
- collision cross section (N2) ([3]; [M+HCOO]-): 301.95 Å²
- collision cross section (N2) ([3]; [M+H]+): 299.26 Å²
- collision cross section (N2) ([3]; [M+Na]+): 299.53 Å²

SMILES: CCCCCCCCCCCCCCCCCCCCCCCCCCCCC(=O)N[C@@H](CO[C@@H]1O[C@H](CO)[C@@H](O)C(O)C1O)[C@H](O)CCCCCCCCCCCCCCC (stereo partly specified) [GlcCer(47:00)]
- collision cross section (N2) ([3]; [M+Na-2H2O]+): 313.61 Å²

SMILES: Cn1cncc1C[C@H](NC(=O)CCN)C(=O)O [L-Anserine]
- collision cross section (N2) ([1]; [M+H]+): 154.1 Å²
- collision cross section (N2) ([1]; [M-H]-): 152.32 Å²
- collision cross section (N2) ([2]; [M+H]+): 155.97 Å²
- collision cross section (N2) ([2]; [M+Na]+): 159.77 Å²

SMILES: CC(=O)NCCCCN [N-Acetylputrescine]
- collision cross section (N2) ([1]; [M+H]+): 128.3 Å²
- collision cross section (N2) ([1]; [M-H]-): 127.22 Å²
- collision cross section (N2) ([2]; [M+H]+): 131.7 Å²
- collision cross section (N2) ([2]; [M+Na]+): 137.57 Å²

SMILES: NCCc1c[nH]c2ccc(O)cc12 [Serotonin]
- collision cross section (N2) ([1]; [M-H]-): 135.85 Å²
- collision cross section (N2) ([2]; [M+H]+): 151.9 Å²
- collision cross section (N2) ([2]; [M+Na]+): 150.8 Å²

Continued, values first:

- collision cross section (N2) ([1]; [M+H]+): 237.5 Å²
- collision cross section (N2) ([2]; [M+H]+): 240.62 Å²
- collision cross section (N2) ([2]; [M+Na]+): 234.02 Å²
SMILES: C[C@@H]1O[C@@H](O[C@H]2[C@H](Oc3cc(O)c4c(c3)O[C@H](c3ccc(O)cc3)CC4=O)O[C@H](CO)[C@@H](O)[C@@H]2O)[C@H](O)[C@H](O)[C@H]1O [Naringin]

- collision cross section (N2) ([3]; [M+2Na-H]+): 271.74 Å²
- collision cross section (N2) ([3]; [M+Na]+): 270.97 Å²
SMILES: CCCCC/C=C\C/C=C\CCCCCCCCCC(=O)O[C@H](COC(=O)CCCCCCC/C=C\CCCCCC)COP(=O)(O)O [PA(36:03)]

- collision cross section (N2) ([3]; [M+Na]+): 279.74 Å²
SMILES: CCCCC/C=C\C/C=C\CCCCCCCCCCCC(=O)O[C@H](COC(=O)CCCCCCCCCCCCCCC)COP(=O)(O)O [PA(38:02)]

- collision cross section (N2) ([3]; [M+2Na-H]+): 279.8 Å²
- collision cross section (N2) ([3]; [M+Na]+): 277.43 Å²
SMILES: CCCCC/C=C\C/C=C\CCCCCCCCCC(=O)O[C@H](COC(=O)CCCCCCC/C=C\CCCCCCCC)COP(=O)(O)O [PA(38:03)]

- collision cross section (N2) ([3]; [M+2Na-H]+): 283.07 Å²
- collision cross section (N2) ([3]; [M+Na]+): 281.79 Å²
SMILES: CCCCC/C=C\C/C=C\C/C=C\C/C=C\CCCCCC(=O)O[C@H](COC(=O)CCCCCCC/C=C\CCCCCCCC)COP(=O)(O)O [PA(40:05)]

- collision cross section (N2) ([3]; [M+HCOO]-): 284.71 Å²
- collision cross section (N2) ([3]; [M+H]+): 276.5 Å²
- collision cross section (N2) ([3]; [M+Na]+): 279.16 Å²
SMILES: CCCCCCCC/C=C\CCCCCCCCCC(=O)O[C@H](COC(=O)CCCCCCCCCCC)COP(=O)([O-])OCC[N+](C)(C)C [PC(32:01)]

- collision cross section (N2) ([3]; [M+Na]+): 276.86 Å²
SMILES: CCCCC/C=C\C/C=C\CCCCCCCC(=O)O[C@H](COC(=O)CCCCCCCCCCCCC)COP(=O)([O-])OCC[N+](C)(C)C [PC(32:02)]

- collision cross section (N2) ([3]; [M+Cl]-): 289.37 Å²
- collision cross section (N2) ([3]; [M+HCOO]-): 289.31 Å²
- collision cross section (N2) ([3]; [M+H]+): 279.51 Å²
- collision cross section (N2) ([3]; [M+K]+): 283.28 Å²
- collision cross section (N2) ([3]; [M+Na]+): 283.1 Å²
SMILES: CCCCCC/C=C\CCCCCCCCCC(=O)O[C@H](COC(=O)CCCCCCC/C=C\CCCCCC)COP(=O)([O-])OCC[N+](C)(C)C [PC(34:02)]

- collision cross section (N2) ([3]; [M+Cl]-): 287.96 Å²
- collision cross section (N2) ([3]; [M+HCOO]-): 288.8 Å²
- collision cross section (N2) ([3]; [M+H]+): 277.12 Å²
- collision cross section (N2) ([3]; [M+Na]+): 281.98 Å²
SMILES: CCCC/C=C\CCCCCCCC(=O)OC[C@H](COP(=O)([O-])OCC[N+](C)(C)C)OC(=O)CCCCCCCCC/C=C\C/C=C\CCCCC [PC(34:03)]

- collision cross section (N2) ([3]; [M+H]+): 284.63 Å²
- collision cross section (N2) ([3]; [M+Na]+): 287.14 Å²
SMILES: CCCCCCCC/C=C\CCCCCCCC(=O)O[C@H](COC(=O)CCCCCCCCCCCCCCCC)COP(=O)([O-])OCC[N+](C)(C)C [PC(35:01)]

- collision cross section (N2) ([1]; [M+H]+): 232.6 Å²
- collision cross section (N2) ([1]; [M-H]-): 231.04 Å²
- collision cross section (N2) ([2]; [M+H]+): 236.2 Å²
- collision cross section (N2) ([2]; [M+Na]+): 251.61 Å²
SMILES: C[C@@H]1O[C@@H](OC[C@H]2O[C@@H](Oc3c(-c4ccc(O)c(O)c4)oc4cc(O)cc(O)c4c3=O)[C@H](O)[C@@H](O)[C@@H]2O)[C@H](O)[C@H](O)[C@H]1O [Rutin]
